From publication PMC6235536 (Science Advances, 2018)
One block for each molecule: values may come before it. Residues, ends and D or L forms follow the SMILES beside them.

Tests used:
LptA-His6 (E. coli) = LptA-His6 (E. coli) (UniProt P0ADV1); experiment: fluorescence polarisation
Gram-negative strains = settings: all the Gram-negative strains tested; cited from earlier work
E. coli = settings: IM or OM of E. coli; cited from earlier work
[1] = molecular target: LptA labeled with DyLight650 (E. coli) (UniProt P0ADV1); experiment: MST

Kd (LptA-His6 (E. coli)): 12 nM
Molecule: thanatin-BDP-FL (peptide)

Molecule: D-thanatin: enantiomeric form of thanatin (comprising all D-amino acids)
activity of enantiomeric form (Gram-negative strains): loses much of its activity

Molecule: polymyxin B
membrane permeabilization by other cationic antimicrobial peptides (E. coli): unlike what is seen with some other cationic antimicrobial peptides

Molecule: CC[C@H](C)CCCCC(=O)N[C@@H](CCN)C(=O)N[C@H](C(=O)N[C@@H](CCN)C(=O)N[C@H]1CCNC(=O)[C@H]([C@@H](C)O)NC(=O)[C@H](CCN)NC(=O)[C@H](CCN)NC(=O)[C@H](CC(C)C)NC(=O)[C@@H](CC(C)C)NC(=O)[C@H](CCN)NC1=O)[C@@H](C)O [Colistin] (HELM PEPTIDE1{[CC[C@H](C)CCCCC(=O)[*:2]].[Dab].T.[Dab].[Dab].[Dab].[dL].L.[Dab].[Dab].T}$PEPTIDE1,PEPTIDE1,5:R3-11:R2$$$V2.0; N-terminus assumed; bridges inferred)
membrane permeabilization by other cationic antimicrobial peptides (E. coli): unlike what is seen with some other cationic antimicrobial peptides

Kd [1]: 20 nM
Molecule: thanatin (peptide)
